Laboratory results from PMC4512978, “Synthesis and evaluation in rats of homologous series of [^18F]-labeled dopamine D2/3 receptor agonists based on the 2-aminomethylchroman scaffold as potential PET tracers” (EJNMMI Research, 2015).

Legend:
[1] = Tracer metabolism in plasma and brain extract (radio-TLC); assay type: in vivo, rats; conditions: living rats
Procedure: Throughout the scan, arterial blood samples (15–19 samples; 0.10–0.15 mL each) were withdrawn from each rat through the arterial cannula. […] From each sample, 25 μL aliquots of whole blood were withdrawn. The rest was centrifuged at 3500 g for 5 min; 25 μL supernatant (plasma) aliquots were withdrawn and deproteinated with 75 μL of ice-cold acetonitrile. From the resulting 100 μL, 2–8 μL portions (i.e., 2–8 % of volume) were taken for thin layer chromatography analysis (radio-TLC) to assess radiometabolite content.
The radioactivity of the plasma and whole blood samples was measured using a well-type gamma-counter (LKB-1282-Compugamma, LKB Wallac).
Radio-TLC was performed on silica plates. Samples of the formulated tracers (diluted) were run along with deproteinated plasma samples to confirm the identity of the parent compound in plasma. Eluent systems used and TLC Rf values recorded are presented in Additional file 1: Table S1.
Another half of the brain was homogenized in 3 mL of ice-cold acetonitrile using Heidolph IDAX600 homogenizer at maximum speed. Homogenate was centrifuged at 3500g for 5 min, and the supernatant (containing >95 % total radioactivity) was analyzed by radio-TLC in the same way as described above for the plasma.

[2] = Ex vivo tissue uptake after the PET scan (gamma-counter); assay type: in vivo, Sprague-Dawley rats
Procedure: After the end of the PET scans (i.e., 98 ± 8 min after tracer injection), anesthetized animals were sacrificed by heart extirpation and dissected. Samples of brain and peripheral tissues were taken. All samples were weighed, and their radioactivity was measured in a gamma-counter.

D2/3R = tested on: D2/3R; set-up: method as in PMID 24325578; conditions: [^18F]FBu-AMC13 0.2 nM, [^18F]FEt-AMC15 5.8 ± 1.6 nM, cited from earlier work
[3] = raclopride 1 mg/kg, after PET scan

metabolism in plasma [1]: more stable
Ex vivo uptake, Adipose tissue ([2]; RAC): 0.10±0.05 SUV
Ex vivo uptake, Adrenal glands ([2]; RAC): 1.73±1.07 SUV
Ex vivo uptake, Bladder ([2]; RAC): 0.69±0.30 SUV
Ex vivo uptake, Blood cells ([2]; RAC): 0.05±0.04 SUV
Ex vivo uptake, Bone ([2]; RAC): 0.12±0.08 SUV
Ex vivo uptake, Bone marrow ([2]; RAC): 0.91±0.53 SUV
Ex vivo uptake, Caecum ([2]; RAC): 0.91±1.10 SUV
Ex vivo uptake, Duodenum ([2]; RAC): 22.8±36.6 SUV
Ex vivo uptake, Heart ([2]; RAC): 0.15±0.10 SUV
Ex vivo uptake, Kidney ([2]; RAC): 0.61±0.51 SUV
Ex vivo uptake, Large intestine ([2]; RAC): 1.20±1.48 SUV
Ex vivo uptake, Large intestine content ([2]; RAC): 0.06±0.04 SUV
Ex vivo uptake, Liver ([2]; RAC): 1.47±1.56 SUV
Ex vivo uptake, Lung ([2]; RAC): 1.19±0.40 SUV
Ex vivo uptake, Muscle ([2]; RAC): 0.15±0.11 SUV
Ex vivo uptake, Pancreas ([2]; RAC): 0.92±0.77 SUV
Ex vivo uptake, Plasma ([2]; RAC): 0.07±0.02 SUV
Ex vivo uptake, Prostate ([2]; RAC): 0.42±0.10 SUV
Ex vivo uptake, Small intestine ([2]; RAC): 11.1±18.4 SUV
Ex vivo uptake, Small intestine content ([2]; RAC): 60.5±104 SUV
Ex vivo uptake, Spleen ([2]; RAC): 1.62±1.15 SUV
Ex vivo uptake, Stomach ([2]; RAC): 1.73±0.75 SUV
Ex vivo uptake, Submandibular gland ([2]; RAC): 1.41±0.34 SUV
Ex vivo uptake, Testes ([2]; RAC): 0.04±0.01 SUV
Ex vivo uptake, Thymus ([2]; RAC): 0.43±0.15 SUV
Ex vivo uptake, Urine ([2]; RAC): 2.32±3.35 SUV
Ex vivo uptake, Whole blood ([2]; RAC): 0.12±0.08 SUV
Ex vivo uptake, Adipose tissue ([2]; SAL): 0.18±0.09 SUV
Ex vivo uptake, Adrenal glands ([2]; SAL): 1.53±0.58 SUV
Ex vivo uptake, Bladder ([2]; SAL): 0.23±0.05 SUV
Ex vivo uptake, Blood cells ([2]; SAL): 0.05±0.04 SUV
Ex vivo uptake, Bone ([2]; SAL): 0.14±0.03 SUV
Ex vivo uptake, Bone marrow ([2]; SAL): 0.98±0.36 SUV
Ex vivo uptake, Caecum ([2]; SAL): 0.15±0.10 SUV
Ex vivo uptake, Duodenum ([2]; SAL): 1.92±0.35 SUV
Ex vivo uptake, Heart ([2]; SAL): 0.11±0.04 SUV
Ex vivo uptake, Kidney ([2]; SAL): 0.40±0.10 SUV
Ex vivo uptake, Large intestine ([2]; SAL): 0.15±0.07 SUV
Ex vivo uptake, Large intestine content ([2]; SAL): 0.02±0.01 SUV
Ex vivo uptake, Liver ([2]; SAL): 0.86±0.23 SUV
Ex vivo uptake, Lung ([2]; SAL): 1.18±0.16 SUV
Ex vivo uptake, Muscle ([2]; SAL): 0.07±0.04 SUV
Ex vivo uptake, Pancreas ([2]; SAL): 0.75±0.27 SUV
Ex vivo uptake, Plasma ([2]; SAL): 0.14±0.11 SUV
Ex vivo uptake, Prostate ([2]; SAL): 0.38±0.15 SUV
Ex vivo uptake, Small intestine ([2]; SAL): 0.18±0.07 SUV
Ex vivo uptake, Small intestine content ([2]; SAL): 0.56±0.24 SUV
Ex vivo uptake, Spleen ([2]; SAL): 1.52±0.68 SUV
Ex vivo uptake, Stomach ([2]; SAL): 1.79±0.92 SUV
Ex vivo uptake, Submandibular gland ([2]; SAL): 1.51±0.26 SUV
Ex vivo uptake, Testes ([2]; SAL): 0.04±0.01 SUV
Ex vivo uptake, Thymus ([2]; SAL): 0.49±0.09 SUV
Ex vivo uptake, Urine ([2]; SAL): 0.69±0.33 SUV
Ex vivo uptake, Whole blood ([2]; SAL): 0.06±0.03 SUV
Ex vivo uptake, Brainstem [2, 3]: 0.03 ± 0.01 SUV
Ex vivo uptake, Cerebellum [2, 3]: 0.03 ± 0.01 SUV
Ex vivo uptake, Cortex [2, 3]: 0.03 ± 0.01 SUV
Ex vivo uptake, Hippocampus [2, 3]: 0.03 ± 0.01 SUV
Ex vivo uptake, Mean brain uptake [2, 3]: 0.03 ± 0.01 SUV
Ex vivo uptake, Olfactory bulbs [2, 3]: 0.03 ± 0.02 SUV
Ex vivo uptake, Parietal bone [2, 3]: 0.08 ± 0.03 SUV
Ex vivo uptake, Pituitary [2, 3]: 1.08 ± 0.27 SUV
Ex vivo uptake, Rest of brain [2, 3]: 0.03 ± 0.02 SUV
Ex vivo uptake, Striatum [2, 3]: 0.03 ± 0.01 SUV
Ex vivo uptake, Thalamus + hypothalamus [2, 3]: 0.03 ± 0.01 SUV
Ex vivo uptake, Brainstem ([2]; saline, after PET scan): 0.03 ± 0.004 SUV
Ex vivo uptake, Cerebellum ([2]; saline, after PET scan): 0.03 ± 0.01 SUV
Ex vivo uptake, Cortex ([2]; saline, after PET scan): 0.03 ± 0.003 SUV
Ex vivo uptake, Hippocampus ([2]; saline, after PET scan): 0.03 ± 0.02 SUV
Ex vivo uptake, Mean brain uptake ([2]; saline, after PET scan): 0.03 ± 0.01 SUV
Ex vivo uptake, Olfactory bulbs ([2]; saline, after PET scan): 0.03 ± 0.001 SUV
Ex vivo uptake, Parietal bone ([2]; saline, after PET scan): 0.09 ± 0.03 SUV
Ex vivo uptake, Pituitary ([2]; saline, after PET scan): 1.36 ± 0.30 SUV
Ex vivo uptake, Rest of brain ([2]; saline, after PET scan): 0.02 ± 0.02 SUV
Ex vivo uptake, Thalamus + hypothalamus ([2]; saline, after PET scan): 0.03 ± 0.01 SUV
Ex vivo uptake, Striatum ([2]; saline, after PET scan (98 ± 8 min p.i.)): 0.02 ± 0.02 SUV
Structure (SMILES): Oc1ccc2c(c1)O[C@@H](CNCCN1CCN(c3ccc(OCC[18F])cc3)CC1)CC2 [[^18F]FEt-AMC15, (R) 1-(4-(2-[^18F]fluoroethoxy)phenyl)-4-(4-(7-hydroxychroman-2-yl)-3-azabutyl)-piperazine]
Striatal SBR % change relative to control condition, Raclopride (D2/3R; 10 μM raclopride): −60%
Striatal SBR, Raclopride (D2/3R; 10 μM raclopride): 0.65 ± 0.37
Striatal SBR % change relative to control condition, GTP (D2/3R; 100 μM GTP): −59%
Striatal SBR, GTP (D2/3R; 100 μM GTP): 0.67 ± 0.28
Striatal SBR, Control (D2/3R; radioligand only): 1.64 ± 1.04
